These results are taken from patent US20250288520A1, “Microemulsion Pharmaceutical Composition For Treatment Of Disorders Of The Anterior Segment Of The Eye” (SIFI S.P.A., priority 2022, published 2025).

This series in a line: Bioavailability study in NZW rabbits after single dose topical administration, sorafenib content by LC-MS. The class given is in vivo. On the procedure: Bioavailability study in NZW rabbits after single dose administration (50 μL topical administration in the right eye) was conducted and content of sorafenib tosylate in plasma (PL), bulbar conjunctivae (BCJ), aqueous humor (AH), cornea (C), vitreous (V), retina (R), and sclera (SC) was evaluated after treatment at t=5, 15, 30, 60, 90, 120 min by LC-MS.
Thirty-six NZW male rabbits, weighing approximately 2 kg, were used in this study. The study was conducted in accordance with GLP standards at the test facility IRIS PHARMA. All animals were treated according to the Directive 2010/63/UE European Convention for the Protection of Vertebrate Animals used for Experimental and Other Scientific Purposes and to the ARVO Statement for the Use of Animals in Ophthalmic and Vision Research. All animals were housed individually in standard cages under identical temperature (18° C.±3° C.), relative humidity (45%-80%), and controlled enrichment conditions and exposed to a 12-h light and darkness cycle in continuously ventilated rooms (15-20 air volumes per hour). They received a standard dry pellet diet and water ad libitum. Only animals with no macroscopic ocular signs of irritation were involved in this study and randomly divided in six time-point groups of 6 animals each (Table 3).
Animals received a single 50 μL topical administration in the right eye and at the time-points listed in Table 3 they were anesthetized by an intramuscular injection of a mix xylazine/ketamine before euthanasia by an intracardiac injection of overdosed pentobarbital. The whole blood in EDTA anticoagulant tubes were sampled by intracardiac puncture, and plasma was prepared and frozen at −23° C.±7° C. Immediately after euthanasia, BCJ, AH, C, V, R, and SC were quickly and carefully dissected from both eyes and weighed, frozen in dry ice and at −23° C.±7° C. until assay. Content of sorafenib was determined in R and PL of both eyes in priority and in AH, BCJ, C, V and SC of both eyes following the rapid resolution liquid chromatography/tandem mass spectrometry method.

Turning to `CNC(=O)c1cc(Oc2ccc(NC(=O)Nc3ccc(Cl)c(C(F)(F)F)c3)cc2)ccn1` [sorafenib], the concentration at 120 min (male, NZW, rabbit, cornea, topical, 50 μL, 120 min (2 h) post treatment, SD=±596) stood at 1710 ng/g. In addition, the “time of sorafenib maximum content in retina of treated eyes” value (single 50 μL instillation in right eye) is 5 min. Besides, under “single 50 μL instillation in right eye, 5 min after treatment”, the “sorafenib maximum content in retina of treated eyes” value amounted to 170 ng/g. Moreover, under “single 50 μL instillation in right eye, all rabbits”, the “sorafenib in retina of left untreated eyes” value is given as “no amount of sorafenib was detected”. For the same compound, where the note is “two hours after treatment”, the “highest detected amount of sorafenib in plasma” value is given as 2 ng/g.
